Source: ChEMBL document CHEMBL1158652, “Constituents of Helenium amarum. II. Isolation and Characterization of Heleniamarin and Other Constituents” (1979)
Values after ≈ are worked out from the molar mass of the structure shown.

Test system: KB
Experiment: Cytotoxicity against human KB cells
Format: functional
Details: read-out: ED50 (the source's name)

Compound	EC50 [µg/mL]
C=C1C(=O)O[C@H]2C[C@@H](C)[C@@H]3C=CC(=O)[C@@]3(C)C[C@H]12 [AROMATICIN]	2 (≈ 8.12 µM)
COc1c(O)cc2oc(-c3ccc(O)cc3)cc(=O)c2c1O [HISPIDULIN]	96 (≈ 320 µM)
C=C1C(=O)O[C@H]2C[C@@H](C)[C@@H]3C=CC(=O)[C@@]3(C)[C@H](O)[C@H]12 [MEXICANIN I]	1.9 (≈ 7.24 µM)
C[C@@H]1C[C@@H]2OC(=O)[C@]3(C)[C@H]2[C@@H](OC3(C)O)[C@]2(C)C(=O)C=C[C@@H]12 (some centres undefined) [TENULIN]	26 (≈ 84.9 µM)
